{"source": "patent US20240279710A1", "about": "“FLUORESCENT PROBES” (TOHOKU TECHNO ARCH CO., LTD., priority 2021, published 2024)", "key": {"[1]": {"system": "SH-SY5Y cells", "test": "Live cell imaging of calpain activity in SH-SY5Y cells", "type": "cell-based", "conditions": "5 μM probe, 10 minutes incubation, FIG. 12", "experimental": "Whether or not the improvement in enzymatic reactivity between the compound of the present invention and a calpain confirmed by the above-mentioned experiment remained the same even in a cell was verified. Calpain activity imaging in SH-SY5Y cells was performed on each of Compounds 16 and 19. Specifically, the SH-SY5Y cells (American Type Culture Collection, VA, USA) were cultured in a mixed medium of Dulbecco's modified eagle medium and Ham's F-12 medium (DMEM/F-12; Thermo Fisher Scientific, Inc.) (containing 10% fetal bovine serum (FBS; Thermo Fisher Scientific, Inc., MA, USA) and 100 U/mL penicillin-100 μg/mL streptomycin (PS; Thermo Fisher Scientific, Inc.)) under the conditions of 37° C. and 5% CO2-95% air. 6×10^4 to 8×10^4 Cells/well of the cells were seeded in a multiwell plate (μ-Plate 96 Well; ibidi, Grafelfing, Germany) coated with poly-D-lysine (Thermo Fisher Scientific, Inc.) and laminin (BD Biosciences, CA, USA), and were preincubated in a culture solution. Immediately after the removal of the culture solution in the wells, 200 μL of an assay solution (a culture solution containing a 5 μM probe) was added thereto, and the cells were incubated under the conditions of 37° C. and 5% CO2-95% air. 10 Minutes after that, a bright field image and a fluorescence image were taken with a confocal microscope (LSM 710, Carl Zeiss AG, Oberkochen, Germany).\nCalpain activity imaging in SH-SY5Y cells was performed on each of Compounds 20 to 23, Compound 38, and Compound 56 in the same manner as in Example 9. In the case of each of Compounds 20 to 23 and Compound 38, a bright field image and a fluorescence image were taken after 30 minutes of incubation of the cells, and in the case of Compound 56, such images were taken after 20 minutes of incubation thereof."}, "[2]": {"system": "calpain", "test": "Rabbit NMDA injury model, ocular fundus imaging", "type": "in vivo", "conditions": "for staining of nerve cells with HMRG in ocular fundus: 30, 45 and 60 minutes after probe into the eye (Compound 19 18.3 μM 19 μL; Compound 16 20 μM 19 μl or 38 μl)", "experimental": "Black Dutch rabbits were each subjected to general anesthesia with a mixed liquid of ketamine and xylazine. N-Methyl-D-aspartate (NMDA) (12 mM, 50 μL) or PBS was administered into an eye of the rabbit. 9 Hours after that, the rabbit was anesthetized with a mixed liquid of ketamine and xylazine again, and Compound 19 (18.3 μM, 19 μL), Compound 16 (20 μM, 19 μl), or Compound 16 (20 μM, 38 μl) was administered into the eye. Images of an ocular fundus were taken with Mirante (a confocal scanning diode laser ophthalmoscope manufactured by Nidek Co., Ltd.) before the administration of each of the compounds and after the lapse of a predetermined time from the administration."}, "[3]": {"system": "iPS cell-derived three-dimensional stereoscopic retinal tissue", "test": "Glutamic acid injury model of iPS cell-derived three-dimensional stereoscopic retinal tissue", "type": "cell-based, human", "experimental": "Next, to confirm a reaction under conditions closer to those of a living organism, the iPS cell-derived three-dimensional stereoscopic retinal tissue on the 60th day of the differentiation induction was left at rest in a 24-well plate containing 1 mL of a reaction medium (obtained by adding CaCl2 (final concentration: 2.4 mM) and HEPES (final concentration: 20 mM) to a HBSS solution) in each well (n=5). The tissue was washed with 1 mL of the reaction medium twice, and glutamic acid was added thereto so that its final concentration became 0 μM, 300 μM, or 1 mM, followed by a reaction for 1 hour. Compound 19 was added to the resultant 1 hour after the addition of glutamic acid so that its final concentration became 0 μM, 0.25 μM, 1.2 μM, or 5.0 μM, and an image of the fluorescence of the mixture was taken with a fluorescence microscope (ZEISS Axio Vert.A1) (a RGB mode (lower stage) and a B/W mode (upper stage)) 1 hour thereafter. In all image-taking operations, an exposure time was fixed to 200 ms. The results of groups in which the final concentrations of glutamic acid are 0 μM, 300 μM, and 1 mM are shown in FIG. 25, FIG. 26, and FIG. 27, respectively. […] In addition, a graphical representation of an average calculated from fluorescence intensities in the images taken in the B/W mode (n=3) is shown in FIG. 28. […] In addition, results obtained by comparing and examining the fluorescence intensities of Compound 19 and Compound 16 are shown in FIG. 29."}, "[4]": {"target": "T1, recombinant human cathepsin B (Homo sapiens, UniProt P07858)", "T1 construct": "purchased R&D Systems 953-CY", "test": "Fluorescence assay with cathepsin B", "type": "biochemical", "conditions": "10 μM probe, 880 ng/mL cathepsin B, 50 mM TRIS pH 7.4, 37° C., excitation 475 nm, fluorescence 500-550 nm; FIG. 37", "experimental": "The fluorescence assay of Compound 19 with time was performed. Specifically, 880 ng/mL of recombinant human cathepsin B (953-CY; R&D Systems, MN, USA) was added to a 50 mM TRIS buffer (pH: 7.4, 2 mM EGTA, 2 mM DTE) containing 10 μM of the synthesized fluorescent probe to perform an enzyme reaction at 37° C. The same operations as those described above except that cathepsin B was not added were performed as a negative control. The results of the measurement of a change in fluorescence intensity with time by cathepsin B are shown in FIG. 37 (excitation wavelength: 475 nm, fluorescence wavelength: from 500 nm to 550 nm)."}, "[5]": {"conditions": "rabbits administered NMDA, Compound 19 18.3 μM 19 μL, FIG. 23"}}, "data": [{"smiles": "COCC(=O)N[C@@H](CC(C)C)C(=O)N[C@@H](CCSC)C(=O)Nc1ccc2c(c1)Oc1cc(N)ccc1C21OCc2ccccc21", "note": "(stereo partly drawn) [Compound 19]", "values": [{"measurement": "calpain activity imaging in SH-SY5Y cells", "setting": "[1]; confocal microscope", "value": "enabled the observation of calpain activity in the SH-SY5Y cells"}, {"measurement": "clarity of live cell imaging compared to Compound 16", "setting": "[1]", "value": "Clear imaging"}, {"measurement": "number of HMRG-positive cells in PBS rabbits compared to NMDA rabbits", "setting": "[2]; Compound 19 (19 μL) and Compound 16 (38 μl), FIG. 23", "value": "significantly reduced"}, {"measurement": "reactivity in relation to dose, compared with Compound 16", "setting": "[2]; rabbit NMDA injury model, administration into the eye", "value": "satisfactory reactivity even when used in a dose smaller than that of Compound 16"}, {"measurement": "staining of nerve cells with HMRG in ocular fundus", "setting": "[2]; rabbits administered NMDA (12 mM, 50 μL)", "value": "many nerve cells were clearly stained with HMRG"}, {"measurement": "number of HMRG-positive cells compared to Compound 16 (19 μl)", "setting": "[2]; [5]", "value": "significantly increased"}, {"measurement": "number of HMRG-positive cells compared to Compound 16 (38 μl)", "setting": "[2]; [5]", "value": "tended to increase"}, {"measurement": "staining of nerve cells with HMRG in ocular fundus", "setting": "[2]; rabbits administered PBS", "value": "substantially no staining of the nerve cells with HMRG"}, {"measurement": "fluorescence images of retinal tissue", "setting": "[3]; glutamic acid 300 μM or 1 mM, probe 0, 0.25, 1.2 or 5.0 μM, 1 hour, FIG. 26, FIG. 27", "value": "enhancement of fluorescence expression was observed in proportion to the concentration of Compound 19"}, {"measurement": "fluorescence intensity compared with Compound 16", "setting": "[3]; glutamic acid 1 mM, probe 0.25 μM, 1.2 μM, or 5.0 μM, FIG. 29", "value": "stronger fluorescence than that of Compound 16"}, {"measurement": "average fluorescence intensity of retinal tissue (B/W mode)", "setting": "[3]; same glutamic acid concentration (0 μM, 300 μM, 1 mM), probe 0 to 5.0 μM, FIG. 28", "value": "fluorescence was strongly observed in a manner dependent on the concentration of Compound 19"}, {"measurement": "change in fluorescence intensity with time by cathepsin B", "setting": "[4]", "value": "functioned as a fluorescent probe for cathepsin B"}]}]}
